In patent publication US11840686B2, “Modulation of prekallikrein (PKK) expression” (Ionis Pharmaceuticals, Inc., priority 2013, dated 2023):
Strand notation (5' to 3'): a small letter for the sugar, then the base; units joined by * are phosphorothioate-linked, units joined directly phosphodiester-linked; [ ] holds rarer units or linkages, { } end groups; capitals alone tell only the bases. e = 2'-O-(2-methoxyethyl) (MOE); k = constrained ethyl (cEt); [5mC] = 5-methylcytosine; d = 2'-deoxy (DNA)

Test system: human PKK mRNA
Experiment: Antisense inhibition of human PKK mRNA in HepaRG cells, 1,000 nM, MOE/deoxy/cEt oligonucleotides (Example 3)
Type: cell-based
Details: HepaRG cells, 1,000 nM antisense oligonucleotide, Table 29
How it was run: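 HepaRG cells at 20,000 per well electroporated with 1,000 nM 16-mer MOE/cEt/deoxy gapmers (phosphorothioate, 5-methylcytosine). After about 24 h, PKK mRNA measured by qRT-PCR with primer probe set RTS3454, normalized to RIBOGREEN total RNA. Reported as percent inhibition versus untreated cells.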

Substance | % inhibition [%]
548609 (antisense eG*eA*kT*d[5mC]*dG*dG*dT*dG*dG*dT*dG*dG*dG*kA*kT*eT) [compound 548609] | 30
548548 (antisense eG*e[5mC]*kT*dT*dG*dT*dA*dG*dA*dA*dG*dG*dG*kA*kT*eT) [compound 548548] | 54

Same assay, conditions: HepaRG cells, electroporation with 1,000 nM antisense oligonucleotide, approx. 24 hours, PKK mRNA by RT-PCR (RTS3454), relative to untreated control cells; Table 25 experiment

Substance | % inhibition [%]
548223 (eT*eA*kG*dA*d[5mC]*d[5mC]*d[5mC]*dA*dG*dA*dA*dT*d[5mC]*kA*kT*eG; antisense) [compound 548223] | 50
548167 (eT*eG*k[5mC]*dG*dA*d[5mC]*d[5mC]*dT*d[5mC]*dG*d[5mC]*dA*dT*kT*kG*eT; antisense) [compound 548167] | 36
548178 (eG*eA*kG*dA*dT*d[5mC]*dT*d[5mC]*dA*dG*dT*dT*dG*k[5mC]*kG*eA; antisense) [compound 548178] | 54

Same assay, conditions: HepaRG cells, electroporation with 1,000 nM antisense oligonucleotide, approx. 24 hours, PKK mRNA by RT-PCR (RTS3454), relative to untreated control cells; Table 26 experiment

Substance | % inhibition [%]
548241 (e[5mC]*eA*kT*dA*d[5mC]*dT*d[5mC]*dG*d[5mC]*d[5mC]*dT*dT*dT*kG*kT*eG; antisense) [compound 548241] | 1
548235 (eT*e[5mC]*kT*dA*dG*dA*dT*dG*dA*d[5mC]*d[5mC]*dT*dG*kA*kA*eG; antisense) [compound 548235] | 0
548248 (antisense eT*eG*k[5mC]*dG*dA*dT*dT*dT*dT*d[5mC]*d[5mC]*dA*dT*kG*k[5mC]*eA) [compound 548248] | 13
548254 (antisense e[5mC]*e[5mC]*k[5mC]*dA*dT*dG*d[5mC]*dA*dT*dA*d[5mC]*dT*d[5mC]*kG*k[5mC]*e[5mC]) [compound 548254] | 39
548245 (e[5mC]*e[5mC]*kA*dT*dG*d[5mC]*dA*dT*dA*d[5mC]*dT*d[5mC]*dG*k[5mC]*k[5mC]*eT; antisense) [compound 548245] | 31
548236 (eT*eA*k[5mC]*dA*dT*d[5mC]*dT*dA*dG*dA*dT*dG*dA*k[5mC]*k[5mC]*eT; antisense) [compound 548236] | 37
548267 (antisense eG*eA*k[5mC]*d[5mC]*dT*d[5mC]*d[5mC]*dA*dG*dA*d[5mC]*dT*dA*k[5mC]*kT*eG) [compound 548267] | 34
548257 (antisense eA*eG*kT*dG*d[5mC]*dT*d[5mC]*d[5mC]*d[5mC]*d[5mC]*dA*dT*dG*k[5mC]*kA*eT) [compound 548257] | 2
548262 (antisense e[5mC]*e[5mC]*kT*dA*dT*d[5mC]*d[5mC]*dG*dT*dG*dT*dT*d[5mC]*kA*kG*e[5mC]) [compound 548262] | 73
548238 (eA*e[5mC]*kT*d[5mC]*dG*d[5mC]*d[5mC]*dT*dT*dT*dG*dT*dG*kA*k[5mC]*eT; antisense) [compound 548238] | 31
548270 (antisense e[5mC]*eT*kG*d[5mC]*dT*dG*dG*dT*dT*dT*dT*dA*dG*kA*k[5mC]*e[5mC]) [compound 548270] | 28

Same assay, conditions: HepaRG cells, electroporation with 1,000 nM antisense oligonucleotide, approximately 24 hours, primer probe set RTS3454, relative to untreated control cells; experiment of Table 23

Substance | % inhibition [%]
547930 (eT*eG*kA*dT*dA*dG*dG*dT*dG*d[5mC]*dA*dG*dA*kT*kG*eG; antisense) [compound 547930] | 48
547944 (eA*e[5mC]*kT*dT*dG*dG*dT*dG*dT*dG*d[5mC]*d[5mC]*dA*k[5mC]*kT*eT; antisense) [compound 547944] | 54

Same assay, conditions: HepaRG cells, electroporation with 1,000 nM antisense oligonucleotide, approximately 24 hours, primer probe set RTS3454, relative to untreated control cells; experiment of Table 24

Substance | % inhibition [%]
548044 (eT*eG*kG*dT*dG*dA*dA*dT*dA*dA*dT*dA*dA*kT*k[5mC]*eT; antisense) [compound 548044] | 12
548042 (eT*eT*kT*dG*dT*dG*dA*dG*dA*dA*dA*dG*dG*kT*kG*eT; antisense) [compound 548042] | 63
548067 (e[5mC]*eA*kG*dT*dT*dG*dG*dT*dA*dT*dA*dA*dA*kT*kT*eG; antisense) [compound 548067] | 18

Same assay, conditions: PKK mRNA, HepaRG cells, 1,000 nM antisense oligonucleotide; Table 31

Substance | % inhibition [%]
548639 (antisense eT*eG*kG*dG*dA*dA*dG*dA*dA*dA*d[5mC]*dT*dA*kG*k[5mC]*eA) [compound 548639] | 10
548620 (antisense eT*eG*kG*dT*dT*dG*dG*dT*dG*dG*d[5mC]*dG*dG*kG*kA*eT) [compound 548620] | 24
548652 (antisense e[5mC]*e[5mC]*kA*d[5mC]*dG*dA*dT*dG*d[5mC]*dT*d[5mC]*dT*dG*kG*k[5mC]*e[5mC]) [compound 548652] | 65
548642 (antisense eG*e[5mC]*kG*dG*d[5mC]*dA*dG*dT*dA*dG*dT*dG*dA*kA*kT*e[5mC]) [compound 548642] | 23
548674 (antisense eG*eA*kG*dA*dG*dA*d[5mC]*dG*dG*d[5mC]*dA*d[5mC]*d[5mC]*k[5mC]*kT*eG) [compound 548674] | 4

Same assay, conditions: Table 19; HepaRG cells, electroporation with 1,000 nM antisense oligonucleotide, approximately 24 hours; PKK mRNA by RT-PCR (RTS3454), relative to untreated control cells

Substance | % inhibition [%]
548075 (eA*e[5mC]*k[5mC]*dT*dT*dT*d[5mC]*dT*d[5mC]*d[5mC]*dT*dT*d[5mC]*kG*kA*eG; antisense) [compound 548075] | 0
548080 (e[5mC]*e[5mC]*k[5mC]*dT*dT*d[5mC]*dT*dT*dT*dA*dT*dA*dG*k[5mC]*k[5mC]*eA; antisense) [compound 548080] | 0
548150 (e[5mC]*eA*kG*dA*d[5mC]*dA*dT*dT*dG*dT*d[5mC]*d[5mC]*dT*k[5mC]*kA*eG; antisense) [compound 548150] | 60
548140 (e[5mC]*eA*kG*dA*dT*dG*dA*dG*dG*dA*d[5mC]*d[5mC]*d[5mC]*k[5mC]*k[5mC]*e[5mC]; antisense) [compound 548140] | 74

Same assay, conditions: Table 20; HepaRG cells, electroporation with 1,000 nM antisense oligonucleotide, approximately 24 hours; PKK mRNA by RT-PCR (RTS3454), relative to untreated control cells

Substance | % inhibition [%]
547854 (antisense eA*eT*k[5mC]*dA*dA*d[5mC]*dT*d[5mC]*d[5mC]*dT*dT*dT*dA*kT*kA*eA) [compound 547854] | 10
547846 (antisense eT*e[5mC]*kG*dA*dT*dG*dG*d[5mC]*dA*dA*dG*d[5mC]*dA*k[5mC]*kT*eT) [compound 547846] | 0
547850 (antisense eA*eA*kA*dT*dG*dT*d[5mC]*dT*d[5mC]*dG*dA*dT*dG*kG*k[5mC]*eA) [compound 547850] | 51

Same assay, conditions: Table 22 experiment; HepaRG cells, electroporation with 1,000 nM antisense oligonucleotide, approx. 24 hours; PKK mRNA by RT-PCR (RTS3454), relative to untreated control cells

Substance | % inhibition [%]
547854 (antisense eA*eT*k[5mC]*dA*dA*d[5mC]*dT*d[5mC]*d[5mC]*dT*dT*dT*dA*kT*kA*eA) [compound 547854] | 9
547846 (antisense eT*e[5mC]*kG*dA*dT*dG*dG*d[5mC]*dA*dA*dG*d[5mC]*dA*k[5mC]*kT*eT) [compound 547846] | 42
547850 (antisense eA*eA*kA*dT*dG*dT*d[5mC]*dT*d[5mC]*dG*dA*dT*dG*kG*k[5mC]*eA) [compound 547850] | 80
547896 (eT*eA*kG*dG*d[5mC]*dA*dA*dT*dT*dG*dT*dT*d[5mC]*k[5mC]*kG*eG; antisense) [compound 547896] | 95

Same assay, conditions: Table 27; HepaRG cells, 1,000 nM antisense oligonucleotide; human PKK mRNA

Substance | % inhibition [%]
548378 (eG*e[5mC]*kA*dA*dG*dA*dT*dG*d[5mC]*dA*dT*dG*d[5mC]*kA*kG*e[5mC]; antisense) [compound 548378] | 49
548355 (antisense eG*e[5mC]*kA*dT*d[5mC]*d[5mC]*dT*d[5mC]*d[5mC]*d[5mC]*dT*dA*dG*kT*kT*eG) [compound 548355] | 47
548305 (eG*eT*kT*d[5mC]*dT*dT*dG*d[5mC]*dT*dT*dA*dT*d[5mC]*k[5mC]*kT*e[5mC]; antisense) [compound 548305] | 55
548322 (eA*eG*kG*dG*dA*dA*dA*dT*dT*dA*dG*dA*dG*kG*k[5mC]*eA; antisense) [compound 548322] | 38
548349 (antisense eT*e[5mC]*k[5mC]*dA*dG*dA*dA*dT*dA*d[5mC]*dT*dG*d[5mC]*k[5mC]*k[5mC]*e[5mC]) [compound 548349] | 61
548341 (antisense eT*eA*kG*dA*dA*d[5mC]*d[5mC]*dT*dT*d[5mC]*d[5mC]*dT*d[5mC]*k[5mC]*kA*e[5mC]) [compound 548341] | 30
548323 (e[5mC]*eT*kG*dT*dT*dG*d[5mC]*d[5mC]*dT*dG*dA*d[5mC]*dA*kT*kG*e[5mC]; antisense) [compound 548323] | 43
548350 (antisense eG*e[5mC]*kG*d[5mC]*dT*dA*dA*d[5mC]*d[5mC]*dT*d[5mC]*dA*dT*kA*kA*eA) [compound 548350] | 29

Same assay, conditions: Table 28; HepaRG cells, 1,000 nM antisense oligonucleotide; human PKK mRNA

Substance | % inhibition [%]
548532 (antisense eT*eA*kT*dT*dT*dA*dT*d[5mC]*d[5mC]*dG*dA*d[5mC]*d[5mC]*kT*k[5mC]*eT) [compound 548532] | 34
548477 (eG*e[5mC]*kA*d[5mC]*dG*dA*dG*d[5mC]*dT*dT*dG*d[5mC]*d[5mC]*kT*kG*eT; antisense) [compound 548477] | 26
548491 (antisense eT*eG*kG*d[5mC]*d[5mC]*dA*dA*dG*d[5mC]*dA*dA*d[5mC]*d[5mC]*kA*kG*eT) [compound 548491] | 57
548501 (antisense e[5mC]*eA*kA*dG*d[5mC]*d[5mC]*dA*d[5mC]*dT*dA*dA*d[5mC]*d[5mC]*k[5mC]*kA*e[5mC]) [compound 548501] | 33

Same assay, conditions: Table 30; human PKK mRNA, HepaRG cells, 1,000 nM antisense oligonucleotide

Substance | % inhibition [%]
548382 (eG*eA*kG*d[5mC]*dA*dA*dA*dT*dA*d[5mC]*dA*dG*dT*k[5mC]*k[5mC]*eA; antisense) [compound 548382] | 19
548404 (eG*eA*kG*d[5mC]*d[5mC]*dT*dT*d[5mC]*d[5mC]*dG*d[5mC]*d[5mC]*dT*k[5mC]*kT*e[5mC]; antisense) [compound 548404] | 37
